ChEMBL document CHEMBL1143888, “Synthesis and structure-activity relationships of N-{1-[(6-fluoro-2-naphthyl)methyl]piperidin-4-yl}benzamide derivatives as novel CCR3 antagonists” (Bioorg Med Chem, 2008)

Key:
[1] = biological target: T1, C-C chemokine receptor type 3 (Homo sapiens, UniProt P51677); test: Antagonist activity at CCR3 expressed in B300-19 cells assessed as inhibition of eotaxin-induced calcium influx; assay type: functional, cell-based
T1 sequence (P51677 whole entry): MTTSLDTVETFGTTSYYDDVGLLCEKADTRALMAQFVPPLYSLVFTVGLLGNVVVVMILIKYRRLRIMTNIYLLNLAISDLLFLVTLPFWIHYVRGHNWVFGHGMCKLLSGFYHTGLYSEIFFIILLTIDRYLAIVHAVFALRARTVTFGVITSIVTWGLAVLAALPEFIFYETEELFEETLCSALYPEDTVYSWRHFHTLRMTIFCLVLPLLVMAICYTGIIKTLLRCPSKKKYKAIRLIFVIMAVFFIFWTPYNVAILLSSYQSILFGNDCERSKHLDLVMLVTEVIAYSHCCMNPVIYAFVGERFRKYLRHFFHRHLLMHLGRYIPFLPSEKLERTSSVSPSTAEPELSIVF

[2] = biological target: T2, C-C chemokine receptor type 3 (Homo sapiens) (UniProt P51677); test: Antagonist activity at CCR3 expressed in B300-19 cells assessed as inhibition of eotaxin-induced calcium influx at 10 uM; assay type: functional, cell-based
T2 sequence (whole entry): T1 sequence (P51677 whole entry)

[3] = biological target: T3, C-C chemokine receptor type 1 (Homo sapiens) (UniProt P32246); test: Inhibition of CCR1 at 10 uM
T3 sequence (whole entry): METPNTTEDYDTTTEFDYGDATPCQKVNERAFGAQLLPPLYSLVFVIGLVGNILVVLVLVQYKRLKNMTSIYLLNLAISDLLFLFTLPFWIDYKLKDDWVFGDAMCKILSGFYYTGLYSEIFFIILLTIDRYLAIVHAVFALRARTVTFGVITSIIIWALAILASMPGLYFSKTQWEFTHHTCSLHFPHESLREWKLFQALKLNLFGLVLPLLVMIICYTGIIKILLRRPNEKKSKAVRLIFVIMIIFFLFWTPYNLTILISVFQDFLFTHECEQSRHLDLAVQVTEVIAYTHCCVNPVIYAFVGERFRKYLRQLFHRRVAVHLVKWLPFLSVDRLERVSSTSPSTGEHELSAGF

Row | IC50 [1] [nM] | Structure (SMILES) | also measured
1 | 600 | Fc1ccc2cc(CN3CCC(NCc4ccccc4)CC3)ccc2c1 | 
2 | 1100 | O=C(NC1CCN(Cc2ccc3cc(F)ccc3c2)CC1)c1cccc(Oc2ccccc2)c1 | 
3 | 2800 | CC1(NC(=O)c2ccccc2-c2ccccc2)CCN(Cc2ccc3cc(F)ccc3c2)CC1 | 
4 | 1700 | O=C(Nc1ccccc1)C1CCN(Cc2ccc3cc(F)ccc3c2)CC1 | 
5 | 1300 | O=C(NC1CCN(Cc2ccc3cc(F)ccc3c2)CC1)c1ccccc1 | 
6 | 2400 | COc1ccc(C(=O)NC2CCN(Cc3ccc4cc(F)ccc4c3)CC2)cc1 | 
7 | 4800 | O=C(Nc1ccccc1)OC1CCN(Cc2ccc3cc(F)ccc3c2)CC1 | 
8 | 2900 | O=C(NC1CCN(Cc2ccc3cc(F)ccc3c2)CC1)c1ccccc1F | 
9 |  | O=C(NC1CCN(Cc2ccc3cc(F)ccc3c2)CC1)c1ccc(-c2ccccc2)cc1 | inhibition [2]: 27%
10 | 830 | O=S(=O)(NC1CCN(Cc2ccc3cc(F)ccc3c2)CC1)c1ccccc1 | 
11 |  | O=C(NC1CCN(Cc2ccc3cc(F)ccc3c2)CC1)c1ccc(Oc2ccccc2)cc1 | inhibition [2]: 40%
12 | 95 | O=C(NC1CCN(Cc2ccc3cc(F)ccc3c2)CC1)c1ccccc1Oc1ccccc1 | 
13 |  | O=C(NC1C[C@@H]2CC[C@@H](C1)N2Cc1ccc2cc(F)ccc2c1)c1ccccc1-c1ccccc1 (relative stereo; 31) | inhibition [3]: 40%
14 |  | O=C(Nc1ccccc1)NC1CCN(Cc2ccc3cc(F)ccc3c2)CC1 | inhibition [2]: 31%
15 | 810 | CN(C(=O)c1ccccc1)C1CCN(Cc2ccc3cc(F)ccc3c2)CC1 | 
16 | 3500 | COc1cccc(C(=O)NC2CCN(Cc3ccc4cc(F)ccc4c3)CC2)c1 | 
17 | 720 | COc1ccccc1C(=O)NC1CCN(Cc2ccc3cc(F)ccc3c2)CC1 | 
18 | 670 | O=C(NC1CCN(Cc2ccc3cc(F)ccc3c2)CC1)c1cccc(F)c1 | 
19 | 3400 | O=C(NC1CCN(C/C=C/c2ccc(F)cc2)CC1)c1ccccc1 | 
